Entries after “also recorded” stand apart in the source; their conditions may differ. Structures can show the parent of a compound that is named as a salt. Marks after values point to notes of the source that are not given here.
Columns and labels:
[1] = test system: soleus muscles of ob/ob mice; assay: Ex vivo muscle glucose uptake in ob/ob mice; settings: for Glucose Uptake in soleus muscle (% Increase): ex vivo after chronic administration
Procedure: (§1) On day 9, food was withheld for 4 h and blood was collected for the analysis of plasma chemistry and plasma insulin levels. On days 12 and 13, 3-4 animals from each group were sacrificed and soleus muscles were excised. Radiolabelled glucose uptake was measured in the isolated soleus muscles by the method of Zierath and colleagues. Plasma Insulin was estimated using mouse ELISA kit (Linco, USA)

db/db mice [2] = assay: Antidiabetic activity in db/db mice, once daily oral dosing; type: in vivo; settings: for decrease in plasma triglyceride / reduction in plasma glucose / plasma adiponectin levels: 150 mg/kg oral once daily; for plasma adiponectin levels: vehicle 7.5 ± 0.44; for Liver weight / Plasma ALT / Plasma AST: 150mg/kg; for Liver weight: vehicle 1.8 + 0.10; for Plasma ALT: vehicle 91.2 + 12.7; for Plasma AST: vehicle 100.6 + 8.8; for reduction of high initial plasma glucose: db/db mice with high initial plasma glucose, 150 mg/kg once daily, 10 days
Procedure: After two weeks of acclimatization, db/db mice were deprived of food for 4h. Their weights were measured and blood was obtained by retro-orbital puncture for the determination of plasma glucose. The animals were randomized into groups (7-10/group) based on body weight and plasma glucose levels. Animals were dosed orally once a day, between 9.00 -10.00am for 15 consecutive days, with either P1736 (150mg/kg) or metformin (150mg/kg) or 0.5% carboxy methyl cellulose (CMC) vehicle. The dose of 150 mg/kg was chosen for once-a-day dosing of P1736, on the basis of its pharmacokinetic profile and to maintain high plasma concentrations. Body weight was measured daily. On days 10 and 15, blood samples were collected at the end of the 4h fasting after drug administration. Plasma samples were analysed for biochemical parameters, by enzymatic methods using autoanalyser 902(Hitachi instruments, Japan). Plasma adiponectin levels were measured using mouse ELISA kits (Millipore Inc. USA).

[3] = test system: insulin resistant 3T3 adipocytes; assay: Glucose uptake in dexamethasone-induced insulin resistant 3T3 adipocytes; type: cell-based; settings: for EC50: Adipocyte, dose response, insulin resistant adipocytes, read-out: EC50 of increase in glucose uptake
Procedure: Fully differentiated 3T3 adipocytes generated in 24-well plates were used after day 8 of differentiation. Insulin resistance was induced essentially as described before. Briefly, adipocytes were incubated with 100 nM dexamethasone for six consecutive days. […].
Glucose uptake was measured essentially according to the method of Gao et al using ^14C-labeled 2-deoxy glucose as the tracer. Activity in this assay is defined as a statistically significant increase in glucose uptake of minimum 50% compared to the uptake seen in cells exposed to vehicle. Effect of wortmannin on glucose uptake was studied according to the method of Hausdorff et al using 100 nM wortmannin.

GLUT-4 = GLUT-4 translocation in insulin resistant 3T3 adipocytes (immunofluorescence); settings: 4 days, 200nM insulin stimulated
ob/ob mice [4] = assay: Antidiabetic activity in ob/ob mice; type: in vivo; settings: 10 days
db/db mice [5] = assay: Dose response experiment in db/db mice, twice daily dosing; type: in vivo; settings: for weight gain / decrease in plasma glucose / decrease in plasma triglyceride: 5 mg/kg twice daily; for weight gain: 15 days; for decrease in plasma glucose / decrease in plasma triglyceride: day 15
Procedure: The doses were given during 8.00-9.00 am and 5.00-6.00 pm daily. On day 15, blood was collected and plasma samples were analysed as described above.

3T3-L1 cells = assay: Adipogenesis screen; type: cell-based
Procedure: Adipogenesis screening was carried out essentially according to the method of Choi et al. […] Compounds that caused increase in adipogenesis by more than 5-fold of vehicle (0.1% DMSO) were considered positive and were selected for further screening.

[6] = molecular target: T1, human 11<beta>-Hydroxysteroid dehydrogenase-1 (Homo sapiens, UniProt P28845); assay: 11beta-HSD1 cell based inhibition assay; settings: concentration not given
T1 construct: University of Edinburgh, UK (outsourced)
T1 sequence (P28845 whole entry): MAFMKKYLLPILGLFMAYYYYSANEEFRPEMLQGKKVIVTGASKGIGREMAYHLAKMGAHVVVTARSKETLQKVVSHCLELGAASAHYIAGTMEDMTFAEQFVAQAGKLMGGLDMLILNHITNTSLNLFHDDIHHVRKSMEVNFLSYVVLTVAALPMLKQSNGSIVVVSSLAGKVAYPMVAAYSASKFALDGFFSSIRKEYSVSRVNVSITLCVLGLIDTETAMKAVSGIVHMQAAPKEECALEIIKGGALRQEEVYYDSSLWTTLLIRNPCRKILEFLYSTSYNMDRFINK
Procedure: (§2) Transactivation activity against human PPARγ and PPARα receptors was determined using luciferase reporter gene assays in the Laboratory of CloneGen Biotechnology, Michigan, USA. Activities of protein tyrosine phosphatase-1b (PTP-1B) and adenosine mono phosphate activated kinase (AMPK) were evaluated at MDS Pharma, Korea. Evaluation of activity against human 11-Hydroxysteroid dehydrogenase-1 was outsourced to University of Edinburg, UK which used a cell based method.

human PPARα receptor = molecular target: T2, human PPARα receptor (Homo sapiens, UniProt Q07869); assay: PPARα transactivation luciferase reporter gene assay in HEK-293 cells; settings: upto 10 μM
T2 sequence (Q07869 239-466 limits assumed): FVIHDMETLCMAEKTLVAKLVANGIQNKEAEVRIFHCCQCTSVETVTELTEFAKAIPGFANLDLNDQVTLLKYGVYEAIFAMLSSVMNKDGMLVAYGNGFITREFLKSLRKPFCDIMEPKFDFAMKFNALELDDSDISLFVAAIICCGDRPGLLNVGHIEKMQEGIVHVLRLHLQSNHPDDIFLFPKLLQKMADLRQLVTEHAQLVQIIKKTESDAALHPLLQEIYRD

Wistar rats = assay: Plasma volume in rats (Evans Blue Dye method)
[7] = test system: adenosine mono phosphate activated kinase (AMPK); assay: AMPK activity (MDS Pharma); type: biochemical
Procedure: as §2

ob/ob mice [8] = assay: Antidiabetic activity in ob/ob mice; type: in vivo; settings: for Liver weight: vehicle 4.3 ± 0.2; for Plasma AST: vehicle 468 ± 38; for Plasma ALT: vehicle 740 ± 71
Procedure: After one week of acclimatization, ob/ob mice (8/group) were dosed orally, twice daily for 10 consecutive days, with either P1736 (100 or 200 mg/kg) or vehicle. Rest of the procedure is exactly the same as that used for db/db mice and as described above.
as §1

human PPARγ receptor = molecular target: T3, human PPARγ receptor (Homo sapiens, UniProt P37231); assay: PPARγ transactivation luciferase reporter gene assay in HEK-293 cells; settings: upto 10 μM
T3 sequence (P37231 238-503 limits assumed): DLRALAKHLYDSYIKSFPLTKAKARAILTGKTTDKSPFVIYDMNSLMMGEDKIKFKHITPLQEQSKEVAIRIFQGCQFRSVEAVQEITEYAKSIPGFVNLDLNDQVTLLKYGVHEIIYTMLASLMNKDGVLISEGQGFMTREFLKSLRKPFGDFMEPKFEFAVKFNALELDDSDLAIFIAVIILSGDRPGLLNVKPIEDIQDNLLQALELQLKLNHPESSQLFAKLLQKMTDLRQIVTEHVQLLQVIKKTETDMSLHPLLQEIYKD

[9] = test system: panel of membrane receptors, ion channels and enzymes; assay: Screen against a panel of membrane receptors, ion channels and enzymes
[10] = molecular target: T4, protein tyrosine phosphatase-1b (PTP-1B) (Homo sapiens, UniProt P18031); assay: PTP-1B activity (MDS Pharma); type: biochemical
T4 construct: MDS Pharma, Korea (contract laboratory)
T4 sequence (P18031 1-435): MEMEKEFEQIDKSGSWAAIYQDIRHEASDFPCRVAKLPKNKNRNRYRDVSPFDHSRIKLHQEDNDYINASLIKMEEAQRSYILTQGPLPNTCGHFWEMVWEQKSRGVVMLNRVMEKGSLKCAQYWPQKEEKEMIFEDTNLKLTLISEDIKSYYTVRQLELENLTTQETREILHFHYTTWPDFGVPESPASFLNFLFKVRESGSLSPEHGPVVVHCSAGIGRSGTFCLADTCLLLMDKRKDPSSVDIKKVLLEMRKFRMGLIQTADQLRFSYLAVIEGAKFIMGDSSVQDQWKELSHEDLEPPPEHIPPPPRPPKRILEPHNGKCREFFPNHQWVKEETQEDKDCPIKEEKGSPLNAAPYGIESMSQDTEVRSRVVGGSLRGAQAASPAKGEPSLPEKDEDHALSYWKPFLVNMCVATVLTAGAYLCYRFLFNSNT
Procedure: as §2

Structure (SMILES): CN(C)C(=N)N=C(N)N [Metformin, Metformin hydrochloride, reference compound]
- Plasma Glucose (% Reduction) ([1]; 150.0 mg/kg): 37%
- Glucose Uptake in soleus muscle (% Increase) ([1]; 150.0 mg/kg): 38* %
- Glucose Uptake in soleus muscle (% Increase) ([1]; 150.0 mg/kg, listed as metformin): 38%
- decrease in plasma triglyceride (db/db mice [2]; day 10): 18%
- reduction in plasma glucose (db/db mice [2]; day 10): 24%
- decrease in plasma triglyceride (db/db mice [2]; day 15): 31%
- reduction in plasma glucose (db/db mice [2]; day 15): 25%
- plasma adiponectin levels (db/db mice [2]): 8.9 ± 0.64 µg/mL
- Liver weight (db/db mice [2]): 2.1 + 0.08 gm
- Plasma ALT (db/db mice [2]): 75.3 + 6.4 U/L
- Plasma AST (db/db mice [2]): 101.7 + 8.4 U/L
- reduction of high initial plasma glucose (db/db mice [2]): 25%
- effect on glucose uptake ([3]; 1.0 mM, 4 days exposure): no effect
- GLUT-4 translocation to plasma membrane (GLUT-4; 1 mM): inactive
- lowering of plasma insulin levels (ob/ob mice [4]; 150 mg/kg): 43%

Structure (SMILES): CN(CCOc1ccc(CC2SC(=O)NC2=O)cc1)c1ccccn1 (stereo not drawn) [Rosiglitazone, rosiglitazone maleate, reference compound]
- weight gain (db/db mice [5]): 13%
- decrease in plasma glucose (db/db mice [5]): 60%
- decrease in plasma triglyceride (db/db mice [5]): 40%
- decrease in plasma glucose (db/db mice [5]; listed as rosiglitazone): about 60%
- Plasma Glucose (% Reduction) ([1]; 5.0 mg/kg): 49%
- Glucose Uptake in soleus muscle (% Increase) ([1]; 5.0 mg/kg): 147** %
- Glucose Uptake in soleus muscle (% Increase) ([1]; 5.0 mg/kg, listed as rosiglitazone): 147%
- adipogenesis (3T3-L1 cells; 1.0 µM, positive control, vehicle induced 7-10%): > 90%
- EC50 [3]: 20 nM
- effect on glucose uptake ([3]; rosiglitazone 0.1 µM): potentiated glucose uptake and re-sensitized the cells
- GLUT-4 translocation to plasma membrane (GLUT-4; 0.1 µM): caused GLUT-4 translocation
- lowering of plasma insulin levels (ob/ob mice [4]; 5 mg/kg): 80%

Structure (SMILES): O=S(=O)(Nc1cnc(Oc2cc3ccccc3cn2)c(Cl)c1)c1ccc(Cl)cc1Cl [P1736]
- inhibitory activity towards 11<beta>-Hydroxysteroid dehydrogenase-1 [6]: 50%
- effect on plasma glucose and triglyceride levels over the dose range (db/db mice [5]; 5 mg/kg to 200 mg/kg twice daily, EC50 could not be established): all the doses reduced plasma glucose and triglyceride levels
- weight gain (db/db mice [5]): did not exhibit any tendency towards weight gain
- decrease in plasma glucose (db/db mice [5]): 40%
- decrease in plasma triglyceride (db/db mice [5]): 32%
- PPARα transactivation (human PPARα receptor): did not activate
- Plasma Glucose (% Reduction) ([1]; 1.0 mg/kg): 34%
- Glucose Uptake in soleus muscle (% Increase) ([1]; 1.0 mg/kg): 70%
- Glucose Uptake in soleus muscle (% Increase) ([1]; 1.0 mg/kg, listed as P1736-05): 70* %
- Plasma Glucose (% Reduction) ([1]; 5.0 mg/kg): 35%
- Glucose Uptake in soleus muscle (% Increase) ([1]; 5.0 mg/kg): 67%
- Glucose Uptake in soleus muscle (% Increase) ([1]; 5.0 mg/kg, listed as P1736-05): 67* %
- normalized plasma volume (Wistar rats; female rats, 100 mg/kg once daily 28 days, control 35.56 ± 1.46): 30.91 ± 0.03 mL/kg
- normalized plasma volume (Wistar rats; female rats, 300 mg/kg once daily 28 days, control 35.56 ± 1.46): 33.02 ± 0.28 mL/kg
- normalized plasma volume (Wistar rats; male rats, 100 mg/kg once daily 28 days, control 33.44 ± 1.52): 31.55 ± 0.27 mL/kg
- normalized plasma volume (Wistar rats; male rats, 300 mg/kg once daily 28 days, control 33.44 ± 1.52): 29.15 ± 0.02 mL/kg
- effect on plasma volume or body weights (Wistar rats; oral, 28 days, male and female normal Wistar rats): did not cause significant increase
- activity against AMPK [7]: no significant activity
- result in adipogenesis screen (3T3-L1 cells; 43 µM, positive = increase in adipogenesis by more than 5-fold of vehicle): positive
- decrease in plasma triglyceride (db/db mice [2]; day 10): 30%
- reduction in plasma glucose (db/db mice [2]; day 10): 35%
- decrease in plasma triglyceride (db/db mice [2]; day 15): 38%
- reduction in plasma glucose (db/db mice [2]; day 15): 35%
- plasma adiponectin levels (db/db mice [2]): 12.4 ± 0.33 µg/mL
- effect on body weight (db/db mice [2]; 150 mg/kg, 15 days): did not affect body weight
- Liver weight (db/db mice [2]): 2.1+ 0.10 gm
- Plasma ALT (db/db mice [2]): 99.0 + 8.5 U/L
- Plasma AST (db/db mice [2]): 84.6 + 2.6 U/L
- reduction of high initial plasma glucose (db/db mice [2]): 23%
- stimulation of glucose uptake after pretreatment with wortmannin ([3]; 10 µM compound, 100 nM wortmannin for 30 minutes): abolished
- increase in glucose uptake compared to insulin resistant vehicle ([3]; 10 µM, 4 days exposure): more than 2 fold
- EC50 [3]: 400 nM
- reduction in plasma glucose (ob/ob mice [8]; 100 mg/kg twice daily, 10 days): 30%
- lowering of plasma insulin levels (ob/ob mice [8]; 100 mg/kg, 10 days): 50%
- Liver weight (ob/ob mice [8]; 100mg/kg): 4.6 ± 0.2 gm
- Plasma AST (ob/ob mice [8]; 100mg/kg): 547 ± 50 U/L
- Plasma ALT (ob/ob mice [8]; 100mg/kg): 857 ± 72 U/L
- reduction in plasma glucose (ob/ob mice [8]; 200 mg/kg twice daily, 10 days): 32%
- Liver weight (ob/ob mice [8]; 200mg/kg): 4.4 ± 0.3 gm
- Plasma AST (ob/ob mice [8]; 200mg/kg): 470 ± 57 U/L
- Plasma ALT (ob/ob mice [8]; 200mg/kg): 668 ± 92 U/L
- decrease in glucose (ob/ob mice [8]; ob/ob mice, dose not stated (abstract)): 30-35%
- changes in body weight (ob/ob mice [8]; upto 200 mg/kg twice daily): did not induce adverse changes
- PPARγ transactivation (human PPARγ receptor): no significant transactivation ability
- activity against panel targets [9]: no significant activity
- GLUT-4 translocation to plasma membrane (GLUT-4; 10 µM): induced translocation; also recorded: complete translocation
- activity against PTP-1B [10]: no significant activity
- lowering of plasma insulin levels (ob/ob mice [4]; 5 mg/kg): 40%
